The subject of assay [1] is chimeric replicon with genotype 4a NS5B. As to the kind of experiment: microbe, parasite or virus in culture. The following applies: Hepatitis C virus, read-out: 4a chimera 5% FBS EC50. It is filed as cell-based, HCV genotype 4a.
Assay [2] deals with chimeric replicon with 2a-J6CF-derived NS5B. As to the kind of experiment: microbe, parasite or virus in culture. The class given is cell-based, HCV genotype 2a. The conditions noted are these: Hepatitis C virus, read-out: 2a chimera 5% FBS EC50.
For assay [3], the system named is HCV 1b-BB7 subgenomic replicon. As to the kind of experiment: microbe, parasite or virus in culture. It is filed as cell-based, HCV genotype 1b. The conditions noted are these: Hepatitis C virus, stable replicon. Background: A replicon is a self-replicating genome or part of one, used to study replication in cells.
Assay [4] deals with chimeric replicon with genotype 3a NS5B. As to the kind of experiment: microbe, parasite or virus in culture. It is filed as cell-based, HCV genotype 3a. The following applies: Hepatitis C virus, read-out: 3a chimera 5% FBS EC50.
For assay [5], the target named is T1, HCV NS5B polymerase 1a-H77 (Hepatitis C virus genotype 1a, UniProt P27958).
T1 construct: six-histidine tag; made in house; host or cells: E. coli
The assay can be described thus: biochemical. On the set-up: species or system HCV genotype 1a. The following applies: enzyme, strain 1a H77; read-out: HCV Polymerase Strain 1a H77 IC50. In short, it runs like this:
(§1)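 Incorporation of [3H]UTP (0.284 μM), alongside 20 μM each CTP and ATP, into RNA copied from a 5 nM 2.1 kb genotype 1b negative-strand template was measured after 3 h at 30° C using purified His-tagged NS5B truncated at residue 570. Product was spermine-precipitated, filtered and scintillation-counted; nonlinear regression gave IC50.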

Assay [6] has as its target T2, HCV NS5B polymerase 1a-H77-C316Y (Hepatitis C virus genotype 1a, UniProt P27958, C2736Y).
T2 construct: six-histidine tag; made in house; host or cells: E. coli
As to the kind of experiment: biochemical. Further details: species or system HCV genotype 1a. In short, it runs like this: as §1

Assay [7] has as its system HCV NS5B polymerase 1a-H77-C316Y. As to the kind of experiment: biochemical. Further details: species or system HCV genotype 1a. The conditions noted are these: ratio of enzyme IC50s, 1a H77-C316Y / 1a H77. In short, it runs like this:
as §1

Assay [8] has as its system HCV 1a-H77 subgenomic replicon. The assay can be described thus: microbe, parasite or virus in culture. The conditions noted are these: Hepatitis C virus, stable replicon. It is filed as cell-based, HCV genotype 1a.
The test system of assay [9] is chimeric replicon with genotype 2b NS5B. As to the kind of experiment: microbe, parasite or virus in culture. The class given is cell-based, HCV genotype 2b. The following applies: Hepatitis C virus, read-out: 2b chimera 5% FBS EC50.
For assay [10], the target named is T3, HCV NS5B polymerase 1b BK strain (Hepatitis C virus genotype 1b, UniProt P26663).
T3 construct: six-histidine tag; made in house; host or cells: E. coli
The assay can be described thus: HCV NS5B polymerase enzymatic inhibition assay, strain 1b BK. It is filed as biochemical. The conditions noted are these: enzyme, strain 1b BK; read-out: HCV Polymerase Strain 1b BK IC50. The gist of the method:
as §1

Assay [11] has as its system HCV 1a-H77-C316Y transient subgenomic replicon in Huh-7 derived cell line. As to the kind of experiment: microbe, parasite or virus in culture. The class given is cell-based, HCV genotype 1a. The conditions noted are these: for EC50: Hepatitis C virus, Huh-7, read-out: Transient Replicon 1a H77-C316Y 5% FBS EC50; for Transient Replicon Fold Resistance C316Y/1a: ratio of transient replicon EC50s, C316Y / 1a H77. In short, it runs like this: (§2)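 Subgenomic replicon RNA (no Neo gene) electroporated into Huh-7-derived cells, plated at 5×10^3 cells/well; a 4 h plate gauged transfection efficiency. Cells exposed to 3-fold compound dilutions (0.5% DMSO) for 4 days at 37° C, then lysed for luciferase readout; EC50 calculated.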

For assay [12], the system named is HCV 1a-H77 transient subgenomic replicon in Huh-7 derived cell line. The assay can be described thus: microbe, parasite or virus in culture. The class given is cell-based, HCV genotype 1a. The following applies: Hepatitis C virus, Huh-7; transient replicon, 5% FBS; read-out: Transient Replicon 1a H77 5% FBS EC50. In short, it runs like this:
as §2

The mark [13] stands for this setting: strain 1b BB7, 5% FBS + 40% human plasma, read-out: 1b BB7 5% FBS + 40% Human Plasma EC50.
Setting [14] is: strain 1b BB7, 5% FBS, no human plasma, read-out: 1b BB7 5% FBS EC50.
Setting [15] is: strain 1b BB7, 5% FBS, read-out: 1b BB7 5% FBS EC50.
[16] abbreviates: 5% FBS, absence of human plasma, read-out: Stable Replicon 1a H77 5% FBS EC50.
The mark [17] stands for this setting: strain 1a H77, 5% FBS + 40% human plasma, read-out: 1a H77 5% FBS + 40% Human Plasma EC50.
Where [18] appears, read: strain 1a H77, 5% FBS, no human plasma, read-out: 1a H77 5% FBS EC50.
The mark [19] stands for this setting: strain 1a H77, 5% FBS, read-out: 1a H77 5% FBS EC50.

For orientation: EC50 means the concentration that produces a half-maximal response. In general, IC50 refers to the point on the concentration scale where inhibition reaches its midpoint.

Where two headings read alike, the source gives them in different places. Where only a bound is given, the exact number is not on record here.

T1 sequence (P27958 2421-2990): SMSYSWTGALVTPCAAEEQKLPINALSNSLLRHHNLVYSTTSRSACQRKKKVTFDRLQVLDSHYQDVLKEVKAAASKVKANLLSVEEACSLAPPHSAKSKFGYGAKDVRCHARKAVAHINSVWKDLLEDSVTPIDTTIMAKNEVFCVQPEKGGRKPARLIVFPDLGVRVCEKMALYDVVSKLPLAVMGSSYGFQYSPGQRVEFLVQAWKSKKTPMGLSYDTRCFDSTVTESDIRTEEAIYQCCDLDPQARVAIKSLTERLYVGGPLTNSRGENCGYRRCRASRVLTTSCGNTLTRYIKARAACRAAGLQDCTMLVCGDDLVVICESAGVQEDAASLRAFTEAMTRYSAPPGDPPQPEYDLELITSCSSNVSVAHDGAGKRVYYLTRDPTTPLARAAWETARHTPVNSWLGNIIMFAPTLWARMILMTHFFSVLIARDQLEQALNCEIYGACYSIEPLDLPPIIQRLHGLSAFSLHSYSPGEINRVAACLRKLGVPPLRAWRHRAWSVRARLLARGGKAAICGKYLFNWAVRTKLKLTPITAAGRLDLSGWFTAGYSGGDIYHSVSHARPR
T2 sequence (P27958 2421-2990 C2736Y): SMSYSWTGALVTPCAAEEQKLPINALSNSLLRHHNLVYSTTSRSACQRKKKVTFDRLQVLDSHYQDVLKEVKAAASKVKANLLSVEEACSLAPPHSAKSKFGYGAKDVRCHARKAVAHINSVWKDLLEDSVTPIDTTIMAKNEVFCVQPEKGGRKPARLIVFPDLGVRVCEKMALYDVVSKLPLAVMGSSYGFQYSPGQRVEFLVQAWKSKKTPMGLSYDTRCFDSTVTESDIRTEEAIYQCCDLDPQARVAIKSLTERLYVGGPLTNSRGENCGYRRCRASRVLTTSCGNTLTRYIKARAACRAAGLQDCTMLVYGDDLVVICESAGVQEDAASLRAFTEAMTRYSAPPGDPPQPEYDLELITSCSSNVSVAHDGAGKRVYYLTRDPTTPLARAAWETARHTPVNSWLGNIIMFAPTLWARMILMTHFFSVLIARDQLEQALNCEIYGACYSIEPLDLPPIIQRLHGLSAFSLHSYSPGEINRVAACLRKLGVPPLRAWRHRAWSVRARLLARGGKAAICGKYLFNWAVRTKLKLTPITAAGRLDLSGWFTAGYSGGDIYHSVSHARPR
T3 sequence (P26663 2420-2989): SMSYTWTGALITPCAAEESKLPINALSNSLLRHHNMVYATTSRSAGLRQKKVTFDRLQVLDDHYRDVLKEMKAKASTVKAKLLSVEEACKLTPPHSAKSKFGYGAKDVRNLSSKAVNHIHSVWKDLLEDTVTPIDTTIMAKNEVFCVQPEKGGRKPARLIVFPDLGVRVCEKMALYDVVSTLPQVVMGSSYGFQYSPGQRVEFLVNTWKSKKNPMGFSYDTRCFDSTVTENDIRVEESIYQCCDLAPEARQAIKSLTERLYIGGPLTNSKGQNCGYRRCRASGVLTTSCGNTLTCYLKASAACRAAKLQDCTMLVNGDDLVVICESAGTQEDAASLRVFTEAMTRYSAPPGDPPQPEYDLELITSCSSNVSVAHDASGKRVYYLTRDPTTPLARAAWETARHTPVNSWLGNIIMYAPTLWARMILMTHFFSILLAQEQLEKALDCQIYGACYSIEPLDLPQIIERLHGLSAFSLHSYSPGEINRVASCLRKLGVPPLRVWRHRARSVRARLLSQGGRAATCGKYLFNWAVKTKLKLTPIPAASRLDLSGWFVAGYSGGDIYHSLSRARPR

Take `CC(C)(O)CCCN(c1cc2oc(-c3ccc(F)cc3)c(-c3ncc[nH]3)c2cc1C1CC1)S(C)(=O)=O` [Example 99, N-[5-cyclopropyl-2-(4-fluorophenyl)-3-(1H-imidazol-2-yl)-1-benzofuran-6-yl]-N-(4-hydroxy-4-methylpentyl)methanesulfonamide]: the EC50 worked out at 31.4 nM in assay [1]; 29.6 nM in assay [2]; 105 nM in assay [3] (setting [13]); 5.4 nM in [3] (setting [14]); 5.4 nM in assay [3] (setting [15]); 3.8 nM in assay [4]. The EC50 in [8] (setting [16]) amounted to 7.7 nM; in [8] (setting [17]), 126 nM; in assay [8] (setting [18]), 7.7 nM; in assay [8] (setting [19]), 7.7 nM; in [9], 17.3 nM; in assay [11], 85.4 nM. In assay [12], the EC50 was 7.6 nM. In addition, the IC50 in [5] is 4.5 nM; in [6], 58 nM; in assay [10], 11 nM. Besides, in [7], the “C316Y/1a Fold Resistance” value was 13 fold. For the same molecule, in assay [11], the “Transient Replicon Fold Resistance C316Y/1a” value was 11 fold.
As to `Cc1c[nH]c(-c2c(-c3ccc(F)cc3)oc3cc(N(CCCCO)S(C)(=O)=O)c(C4CC4)cc23)n1` [Example 187, N-[5-cyclopropyl-2-(4-fluorophenyl)-3-(4-methyl-1H-imidazol-2-yl)-1-benzofuran-6-yl]-N-(4-hydroxybutyl)methanesulfonamide], the EC50 in [1] was over 1000 nM; in assay [2] it was 703 nM; in assay [3] (setting [13]), 244 nM; in assay [3] (setting [14]) it was 63.2 nM; in assay [3] (setting [15]), 63.2 nM; in [4], 91.7 nM. For the same molecule, the EC50 in [8] (setting [16]) worked out at 41.9 nM; in assay [8] (setting [17]), 409 nM; in assay [8] (setting [18]) it was 41.9 nM; in assay [8] (setting [19]), 41.9 nM; in assay [9], 1000 nM; in assay [11], 128 nM. Further, the EC50 in assay [12] was 28.9 nM. Also, the results for the IC50 in assay [5], in [6] and in [10] were 25.8 nM, 159 nM and 168 nM, respectively. In [7], the “C316Y/1a Fold Resistance” value was found to be 6 fold. In [11], the “Transient Replicon Fold Resistance C316Y/1a” value was 4 fold.
`CC(C)(C#N)CCCCN(c1cc2oc(-c3ccc(F)cc3)c(C3=NOCCN3)c2cc1C1CC1)S(C)(=O)=O` [Example 115, N-(5-cyano-5-methylhexyl)-N-[5-cyclopropyl-3-(5,6-dihydro-4H-1,2,4-oxadiazin-3-yl)-2-(4-fluorophenyl)-1-benzofuran-6-yl]methanesulfonamide]: the EC50 in [1] turned out to be 124 nM; in [2] it was 167 nM; in assay [3] (setting [13]), 127 nM; in assay [3] (setting [14]), 14 nM; in assay [3] (setting [15]), 14 nM; in assay [4] it was 30 nM. Moreover, the EC50 in assay [8] (setting [16]) is 9.5 nM; in [8] (setting [17]), 38 nM; in [8] (setting [18]), 9.5 nM; in [8] (setting [19]), 9.5 nM; in assay [9] it was 146 nM; in assay [11] it was 90.7 nM. In assay [12], the EC50 is 7.3 nM. For the same molecule, the concentration for half-maximal inhibition (IC50) in assay [5] is 3.9 nM; in [6], 37 nM; in assay [10] it was 33 nM. Also, in [7], the “C316Y/1a Fold Resistance” value is listed as 10 fold. In addition, in assay [11], the “Transient Replicon Fold Resistance C316Y/1a” value is 12 fold.
Take `CC(C)(O)C(O)CCN(c1cc2oc(-c3ccc(F)cc3)c(C3=NOCN3)c2cc1C1CC1)S(C)(=O)=O` (stereo not drawn) [Example 146, N-[5-cyclopropyl-3-(4,5-dihydro-1,2,4-oxadiazol-3-yl)-2-(4-fluorophenyl)-1-benzofuran-6-yl]-N-(3,4-dihydroxy-4-methylpentyl)methanesulfonamide]: the EC50 in assay [1] was found to be 277 nM; in [2], 179 nM; in [3] (setting [13]) it was 2710 nM; in assay [3] (setting [14]) it was 17.9 nM; in assay [3] (setting [15]) it was 17.9 nM; in [4], 17 nM. In addition, the EC50 came to 12.6 nM in [8] (setting [16]); 1660 nM in assay [8] (setting [17]); 12.6 nM in assay [8] (setting [18]); 12.6 nM in assay [8] (setting [19]); 169 nM in assay [9]; 237 nM in assay [11]. In [12], the half-maximal effective concentration (EC50) came to 11.2 nM. Also, the IC50 was found to be 4.9 nM in assay [5], 45 nM in assay [6] and 25 nM in assay [10]. The “C316Y/1a Fold Resistance” value in assay [7] turned out to be 9 fold. In addition, the “Transient Replicon Fold Resistance C316Y/1a” value in assay [11] came out at 21 fold.
As to `CC(C)(O)C(O)CCN(c1cc2oc(-c3ccc(F)cc3)c(-c3ncc[nH]3)c2cc1C1CC1)S(C)(=O)=O` (stereo not drawn) [Example 84, N-[5-cyclopropyl-2-(4-fluorophenyl)-3-(1H-imidazol-2-yl)-1-benzofuran-6-yl]-N-(3,4-dihydroxy-4-methylpentyl)methanesulfonamide], the EC50 worked out at 142 nM in assay [1]; 103 nM in assay [2]; 146 nM in assay [3] (setting [13]); 14.1 nM in assay [3] (setting [14]); 14.1 nM in assay [3] (setting [15]); 15.1 nM in [4]. Also, the EC50 in assay [8] (setting [16]) came to 14.9 nM; in assay [8] (setting [17]), 218 nM; in assay [8] (setting [18]), 14.9 nM; in assay [8] (setting [19]), 14.9 nM; in [9], 30.9 nM; in [11], 184 nM. In assay [12], the EC50 turned out to be 25.4 nM. The IC50 in assay [5] was 3.5 nM; in assay [6], 41 nM; in [10] it was 19 nM. The “C316Y/1a Fold Resistance” value in assay [7] is given as 12 fold. Also, the “Transient Replicon Fold Resistance C316Y/1a” value in assay [11] was found to be 7 fold.
Consider `CS(=O)(=O)N(CCCCC(N)=O)c1cc2oc(-c3ccc(F)cc3)c(-c3ncc[nH]3)c2cc1C1CC1` [Example 91, 5-{[5-cyclopropyl-2-(4-fluorophenyl)-3-(1H-imidazol-2-yl)-1-benzofuran-6-yl](methylsulfonyl)amino}pentanamide], for which the EC50 in assay [1] stood at 88.8 nM; in assay [2] it was 85.8 nM; in assay [3] (setting [13]), 34 nM; in assay [3] (setting [14]), 4.9 nM; in [3] (setting [15]), 4.9 nM; in [4], 8 nM. Besides, the EC50 in assay [8] (setting [16]) was found to be 6.3 nM; in assay [8] (setting [17]), 32 nM; in assay [8] (setting [18]), 6.3 nM; in [8] (setting [19]) it was 6.34 nM; in assay [9] it was 99.4 nM; in [11] it was 121 nM. The EC50 in assay [12] amounted to 5.6 nM. Further, the IC50 was 5.3 nM in assay [5], 80 nM in assay [6] and 26 nM in assay [10]. The “C316Y/1a Fold Resistance” value in assay [7] worked out at 15 fold. In addition, the “Transient Replicon Fold Resistance C316Y/1a” value in [11] is 22 fold.
In the case of `CC(C)CCN(c1cc2oc(-c3ccc(F)cc3)c(C3=NOCN3)c2cc1C1CC1)S(C)(=O)=O` [Example 156, N-[5-cyclopropyl-3-(4,5-dihydro-1,2,4-oxadiazol-3-yl)-2-(4-fluorophenyl)-1-benzofuran-6-yl]-N-(3-methylbutyl)methanesulfonamide], the EC50 in assay [1] is 623 nM; in assay [2], 718 nM; in [3] (setting [13]), 2980 nM; in [3] (setting [14]), 70.9 nM; in assay [3] (setting [15]), 70.9 nM; in assay [4] it was 65.1 nM. In addition, the EC50 was 41.8 nM in [8] (setting [16]); 2300 nM in assay [8] (setting [17]); 41.8 nM in assay [8] (setting [18]); 41.8 nM in assay [8] (setting [19]); 893 nM in assay [9]; 370 nM in assay [11]. In addition, the EC50 in assay [12] came out at 29.1 nM. The IC50 in assay [5] is 6.3 nM; in [6], 34 nM; in assay [10] it was 27 nM. Moreover, in [7], the “C316Y/1a Fold Resistance” value is 5 fold. The “Transient Replicon Fold Resistance C316Y/1a” value in [11] was found to be 13 fold.
